# Measured values as given in PubChem BioAssay AID2060890 (Molecular Pharmacology Branch, DTP, NCI, 2025).
# Tested on: LG0703-F948-PDC complex spheroid viability
# Experiment: Anticancer human tumor LG0703-F948-PDC patient-derived lung adenocarcinoma cell line growth inhibition [RAS]
# Settings: for IC50: curve of first compound; for viability, T/C: stronger effect = lower value
# Outline: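 Tumour cells grown as complex spheroids with HUVEC endothelial cells and mesenchymal stem cells, treated with RAS pathway inhibitor combinations. Each agent spans half-log steps from near clinical Cmax, or 10 microM where Cmax is unknown.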
# [1] = second compound 0.000949 µM, first compound 0.0316 µM
# [2] = second compound 0.000949 µM, first compound 0.1 µM
# [3] = second compound 0.000949 µM, first compound 0.316 µM
# [4] = second compound 0.000949 µM, first compound 1 µM
# [5] = second compound 0.000949 µM, first compound 3.16 µM
# [6] = second compound 0.000949 µM, first compound 10 µM
# [7] = second compound 0.003 µM, first compound 0.0316 µM
# [8] = second compound 0.003 µM, first compound 0.1 µM
# [9] = second compound 0.003 µM, first compound 0.316 µM
# [10] = second compound 0.003 µM, first compound 1 µM
# [11] = second compound 0.003 µM, first compound 3.16 µM
# [12] = second compound 0.003 µM, first compound 10 µM
# [13] = second compound 0.00949 µM, first compound 0.0316 µM
# [14] = second compound 0.00949 µM, first compound 0.1 µM
# [15] = second compound 0.00949 µM, first compound 0.316 µM
# [16] = second compound 0.00949 µM, first compound 1 µM
# [17] = second compound 0.00949 µM, first compound 3.16 µM
# [18] = second compound 0.00949 µM, first compound 10 µM
# [19] = second compound 0.03 µM, first compound 0.0316 µM
# [20] = second compound 0.03 µM, first compound 0.1 µM
# [21] = second compound 0.03 µM, first compound 0.316 µM
# [22] = second compound 0.03 µM, first compound 1 µM
# [23] = second compound 0.03 µM, first compound 3.16 µM
# [24] = second compound 0.03 µM, first compound 10 µM
# [25] = second compound 0.0949 µM, first compound 0.0316 µM
# [26] = second compound 0.0949 µM, first compound 0.1 µM
# [27] = second compound 0.0949 µM, first compound 0.316 µM
# [28] = second compound 0.0949 µM, first compound 1 µM
# [29] = second compound 0.0949 µM, first compound 3.16 µM
# [30] = second compound 0.0949 µM, first compound 10 µM
# [31] = second compound 0.3 µM, first compound 0.0316 µM
# [32] = second compound 0.3 µM, first compound 0.1 µM
# [33] = second compound 0.3 µM, first compound 0.316 µM
# [34] = second compound 0.3 µM, first compound 1 µM
# [35] = second compound 0.3 µM, first compound 3.16 µM
# [36] = second compound 0.3 µM, first compound 10 µM
# [37] = second compound 0.000949 µM, first compound 0.00316 µM
# [38] = second compound 0.000949 µM, first compound 0.01 µM
# [39] = second compound 0.003 µM, first compound 0.00316 µM
# [40] = second compound 0.003 µM, first compound 0.01 µM
# [41] = second compound 0.00949 µM, first compound 0.00316 µM
# [42] = second compound 0.00949 µM, first compound 0.01 µM
# [43] = second compound 0.03 µM, first compound 0.00316 µM
# [44] = second compound 0.03 µM, first compound 0.01 µM
# [45] = second compound 0.0949 µM, first compound 0.00316 µM
# [46] = second compound 0.0949 µM, first compound 0.01 µM
# [47] = second compound 0.3 µM, first compound 0.00316 µM
# [48] = second compound 0.3 µM, first compound 0.01 µM
# 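Note: spheroids exposed to agents for 7 days.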
# 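Throughout, for viability, T/C: 100% = DMSO vehicle wells.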
smiles,measurement,setting,value
CC(=O)OC12COC1CC(O)C1(C)C(=O)C(O)C3=C(C)C(OC(=O)C(O)C(NC(=O)OC(C)(C)C)c4ccccc4)CC(O)(C(OC(=O)c4ccccc4)C21)C3(C)C (stereo not drawn) + CCn1c(-c2cccnc2C(C)OC)c2c3cc(ccc31)N1CCOC(CC(NC(=O)C(C(C)C)N(C)C(=O)C3(F)CCN(C(=O)C#CC(C)(C)N(C)C)CC3)C(=O)N3CCCC(N3)C(=O)OCC(C)(C)C2)C1,IC50,second compound 0.000949 µM,< 31.6 nM
same,IC50,second compound 0.003 µM,< 31.6 nM
same,IC50,second compound 0.00949 µM,< 31.6 nM
same,IC50,second compound 0.03 µM,< 31.6 nM
same,IC50,second compound 0.0949 µM,< 31.6 nM
same,IC50,second compound 0.3 µM,< 31.6 nM
same,"viability, T/C",[1],40.1%
same,"viability, T/C",[2],36.8%
same,"viability, T/C",[3],36.3%
same,"viability, T/C",[4],39.4%
same,"viability, T/C",[5],44.2%
same,"viability, T/C",[6],41%
same,"viability, T/C",[7],37.7%
same,"viability, T/C",[8],35.4%
same,"viability, T/C",[9],41.1%
same,"viability, T/C",[10],42.1%
same,"viability, T/C",[11],38.7%
same,"viability, T/C",[12],35.6%
same,"viability, T/C",[13],36.5%
same,"viability, T/C",[14],36.7%
same,"viability, T/C",[15],36.6%
same,"viability, T/C",[16],40.9%
same,"viability, T/C",[17],49.5%
same,"viability, T/C",[18],46.9%
same,"viability, T/C",[19],33.5%
same,"viability, T/C",[20],35.5%
same,"viability, T/C",[21],36.5%
same,"viability, T/C",[22],40.3%
same,"viability, T/C",[23],42.5%
same,"viability, T/C",[24],34%
same,"viability, T/C",[25],39%
same,"viability, T/C",[26],32.7%
same,"viability, T/C",[27],33.4%
same,"viability, T/C",[28],34%
same,"viability, T/C",[29],35.6%
same,"viability, T/C",[30],37.1%
same,"viability, T/C",[31],28.5%
same,"viability, T/C",[32],22.3%
same,"viability, T/C",[33],22.4%
same,"viability, T/C",[34],23.4%
same,"viability, T/C",[35],23.7%
same,"viability, T/C",[36],20.9%
CC(C)n1nc(-c2ccc3oc(N)nc3c2)c2c(N)ncnc21 + CCn1c(-c2cccnc2C(C)OC)c2c3cc(ccc31)N1CCOC(CC(NC(=O)C(C(C)C)N(C)C(=O)C3(F)CCN(C(=O)C#CC(C)(C)N(C)C)CC3)C(=O)N3CCCC(N3)C(=O)OCC(C)(C)C2)C1,IC50,second compound 0.000949 µM,6.03 nM
same,IC50,second compound 0.003 µM,8.31 nM
same,IC50,second compound 0.00949 µM,7.72 nM
same,IC50,second compound 0.03 µM,8.1 nM
same,IC50,second compound 0.0949 µM,1.85 nM
same,IC50,second compound 0.3 µM,< 0.316 nM
same,"viability, T/C","second compound 0.000949 µM, first compound 0.000316 µM",105%
same,"viability, T/C","second compound 0.000949 µM, first compound 0.001 µM",72.7%
same,"viability, T/C",[37],64.1%
same,"viability, T/C",[38],43.5%
same,"viability, T/C",[1],27%
same,"viability, T/C",[2],19.9%
same,"viability, T/C","second compound 0.003 µM, first compound 0.000316 µM",87%
same,"viability, T/C","second compound 0.003 µM, first compound 0.001 µM",79.4%
same,"viability, T/C",[39],65%
same,"viability, T/C",[40],49.8%
same,"viability, T/C",[7],25.5%
same,"viability, T/C",[8],17.9%
same,"viability, T/C","second compound 0.00949 µM, first compound 0.000316 µM",88.2%
same,"viability, T/C","second compound 0.00949 µM, first compound 0.001 µM",83.8%
same,"viability, T/C",[41],59.9%
same,"viability, T/C",[42],48.2%
same,"viability, T/C",[13],28.7%
same,"viability, T/C",[14],17.2%
same,"viability, T/C","second compound 0.03 µM, first compound 0.000316 µM",92.4%
same,"viability, T/C","second compound 0.03 µM, first compound 0.001 µM",87.6%
same,"viability, T/C",[43],68.8%
same,"viability, T/C",[44],46.8%
same,"viability, T/C",[19],23.9%
same,"viability, T/C",[20],15.6%
same,"viability, T/C","second compound 0.0949 µM, first compound 0.000316 µM",67.4%
same,"viability, T/C","second compound 0.0949 µM, first compound 0.001 µM",57.5%
same,"viability, T/C",[45],41.2%
same,"viability, T/C",[46],36.8%
same,"viability, T/C",[25],18.5%
same,"viability, T/C",[26],13.2%
same,"viability, T/C","second compound 0.3 µM, first compound 0.000316 µM",43.3%
same,"viability, T/C","second compound 0.3 µM, first compound 0.001 µM",36.8%
same,"viability, T/C",[47],29.3%
same,"viability, T/C",[48],21.9%
same,"viability, T/C",[31],11.7%
same,"viability, T/C",[32],8.29%
CCN1CCN(Cc2ccc(Nc3ncc(F)c(-c4cc(F)c5nc(C)n(C(C)C)c5c4)n3)nc2)CC1 + CCn1c(-c2cc(N3CCN(C)CC3)cnc2C(C)OC)c2c3cc(ccc31)-c1csc(n1)CC(NC(=O)C1CC1C)C(=O)N1CCCC(N1)C(=O)OCC(C)(C)C2,IC50,second compound 0.000949 µM,> 1000 nM
same,IC50,second compound 0.003 µM,> 1000 nM
same,IC50,second compound 0.00949 µM,< 3.16 nM
same,IC50,second compound 0.03 µM,< 3.16 nM
same,IC50,second compound 0.0949 µM,< 3.16 nM
same,IC50,second compound 0.3 µM,< 3.16 nM
same,"viability, T/C",[37],82%
same,"viability, T/C",[38],68%
same,"viability, T/C",[1],60.8%
same,"viability, T/C",[2],68.2%
same,"viability, T/C",[3],63.9%
same,"viability, T/C",[4],52%
same,"viability, T/C",[39],58.2%
same,"viability, T/C",[40],49.1%
same,"viability, T/C",[7],47.7%
same,"viability, T/C",[8],53.2%
same,"viability, T/C",[9],57%
same,"viability, T/C",[10],48.9%
same,"viability, T/C",[41],26.1%
same,"viability, T/C",[42],24.8%
same,"viability, T/C",[13],28.4%
same,"viability, T/C",[14],22%
same,"viability, T/C",[15],31.7%
same,"viability, T/C",[16],34.5%
same,"viability, T/C",[43],17%
same,"viability, T/C",[44],14.6%
same,"viability, T/C",[19],14.7%
same,"viability, T/C",[20],17%
same,"viability, T/C",[21],18.6%
same,"viability, T/C",[22],26.2%
same,"viability, T/C",[45],10.1%
same,"viability, T/C",[46],11.1%
same,"viability, T/C",[25],10.2%
same,"viability, T/C",[26],11.3%
same,"viability, T/C",[27],14.9%
same,"viability, T/C",[28],23.9%
same,"viability, T/C",[47],9.56%
same,"viability, T/C",[48],9.57%
same,"viability, T/C",[31],8.56%
same,"viability, T/C",[32],10.3%
same,"viability, T/C",[33],13.5%
same,"viability, T/C",[34],18.3%
CC(C)NCC(C(=O)N1CCN(c2ncnc3c2C(C)CC3O)CC1)c1ccc(Cl)cc1 (stereo not drawn) + CCn1c(-c2cc(N3CCN(C)CC3)cnc2C(C)OC)c2c3cc(ccc31)-c1csc(n1)CC(NC(=O)C1CC1C)C(=O)N1CCCC(N1)C(=O)OCC(C)(C)C2,IC50,second compound 0.000949 µM,127 nM
same,IC50,second compound 0.003 µM,34.1 nM
same,IC50,second compound 0.00949 µM,< 31.6 nM
same,IC50,second compound 0.03 µM,< 31.6 nM
same,IC50,second compound 0.0949 µM,< 31.6 nM
same,IC50,second compound 0.3 µM,< 31.6 nM
same,"viability, T/C",[1],64.1%
same,"viability, T/C",[2],54%
same,"viability, T/C",[3],37.1%
same,"viability, T/C",[4],30%
same,"viability, T/C",[5],17.6%
same,"viability, T/C",[6],14.5%
same,"viability, T/C",[7],51%
same,"viability, T/C",[8],35%
same,"viability, T/C",[9],18%
same,"viability, T/C",[10],13.1%
same,"viability, T/C",[11],12.7%
same,"viability, T/C",[12],8.04%
same,"viability, T/C",[13],23.2%
same,"viability, T/C",[14],16.7%
same,"viability, T/C",[15],10.3%
same,"viability, T/C",[16],7.8%
same,"viability, T/C",[17],6.46%
same,"viability, T/C",[18],3.27%
same,"viability, T/C",[19],11.7%
same,"viability, T/C",[20],13.7%
same,"viability, T/C",[21],7.73%
same,"viability, T/C",[22],3.93%
same,"viability, T/C",[23],3.49%
same,"viability, T/C",[24],1%
same,"viability, T/C",[25],10%
same,"viability, T/C",[26],6.85%
same,"viability, T/C",[27],4.55%
same,"viability, T/C",[28],3.71%
same,"viability, T/C",[29],1.27%
same,"viability, T/C",[30],0.64%
same,"viability, T/C",[31],9.37%
same,"viability, T/C",[32],5.76%
same,"viability, T/C",[33],5.01%
same,"viability, T/C",[34],3.25%
same,"viability, T/C",[35],1.87%
same,"viability, T/C",[36],0.61%
